The values below come from ChEMBL document CHEMBL4673200, “Hydride-induced Meisenheimer complex formation reflects activity of nitro aromatic anti-tuberculosis compounds” (RSC Med Chem, 2021).

Experiment [1] has as its system Mycobacterium tuberculosis variant bovis BCG. As to the kind of experiment: Inhibition of Mycobacterium bovis BCG QcrB harboring CydAB deletion mutant assessed as decrease in ATP level at 10 uM incubated for 20 hrs by Bactiter-Glo microbial cell viability assay.
Experiment [2] has the same test system. As to the kind of experiment: Inhibition of Mycobacterium bovis BCG QcrB assessed as decrease in ATP level at 10 uM incubated for 20 hrs by Bactiter-Glo microbial cell viability assay.
The test system is the same in experiment [3]. As to the kind of experiment: Inhibition of Mycobacterium bovis BCG QcrB harboring CydAB deletion mutant assessed as decrease in ATP level at 0.01 to 10 uM incubated for 20 hrs by Bactiter-Glo microbial cell viability assay. The note with it: dose 0.01-10 µM.
For experiment [4] the test system is unchanged. As to the kind of experiment: Inhibition of Mycobacterium bovis BCG QcrB assessed as decrease in ATP level at 0.01 to 10 uM incubated for 20 hrs by Bactiter-Glo microbial cell viability assay. The note with it: dose 0.01-10 µM.

The source made the active and inactive calls. No cut-off for these calls is given here.

In the case of `O=C(NCc1ccc(N2CCC(c3ccc(OC(F)(F)F)cc3)CC2)cc1)c1nc2cc(C(F)(F)F)cc([N+](=O)[O-])c2s1`, the inhibition result in experiment [1] and in experiment [2] was “Active” throughout.
As to `COc1nc2ccc(Br)cc2cc1[C@@H](c1ccccc1)[C@@](O)(CCN(C)C)c1cccc2ccccc12`, the inhibition result in experiment [3] and in experiment [4] was “Active” in each case.
In the case of `O=C(NCc1ccc(N2CCC(c3ccc(OC(F)(F)F)cc3)CC2)cc1)c1sc2c([N+](=O)[O-])cc(C(F)(F)F)cc2[n+]1[O-]`, the inhibition entry in experiment [1] and in experiment [2] was “Active” throughout.
For `CCc1nc2ccc(Cl)cn2c1C(=O)NCc1ccc(N2CCC(c3ccc(OC(F)(F)F)cc3)CC2)cc1` [TELACEBEC], the inhibition entry in experiment [3] and in experiment [4] was “Active” throughout.
